Laboratory results published in article PMC5219024, “New acetylenic derivatives of betulin and betulone, synthesis and cytotoxic activity” (Medicinal Chemistry Research, 2016).
Values after ≈ are worked out from the molar mass of the structure shown. Like-named read-outs stand apart in the source and are kept apart here.

Assays:
[1] = test system: HL-60 (human promyelocytic leukemia); assay: Antiproliferative assay in vitro (MTT), HL-60; type: cell-based; settings: for IC50: Homo sapiens, read-out: Cytotoxic activity IC50, HL-60
Method: (§1) The tested cell lines were obtained from the American Type Culture Collection (Rockville, Maryland, USA) and maintained at the Cell Culture Collection of the Institute of Immunology and Experimental Therapy (Wrocław, Poland). The cells were seeded in 96-well plates (Sarstedt, USA) at a density of 10^4 cells per well in 100 µL of culture medium overnight. […] The normal mouse fibroblasts BALB3T3 was cultured in Dulbecco’s modified Eagle’s medium (Sigma-Aldrich, Chemie GmbH, Steinheim, Germany) supplemented with 2 mM glutamine (Sigma-Aldrich, Chemie GmbH, Steinheim, Germany) and 10 % fetal calf serum FBS (Sigma-Aldrich, Chemie GmbH, Steinheim, Germany). The all culture media were supplemented with streptomycin (100 µg/mL) and penicillin (100 U/mL) (both antibiotics from Polfa, Tarchomin, Poland). The cell cultures were maintained at 37 °C in humid atmosphere saturated with 5 % CO2. The MTT assay was used for the cytotoxicity screening against leukemia cells growing in suspension culture. This assay was performed after 96 h of the leukemia cells to varying concentrations (ranging from 1 to 100 µg/mL) of the tested substances. The derivatives of betulin were dissolved in 10 % DMSO to concentration of 1 mg/mL, and next diluted in culture medium to reach the required concentrations. […] During the last 3–4 h of incubation 20 µl of MTT solution were added to each well (MTT: 3-(4,5-dimethylthiazol-2-yl)-2,5-diphenyl tetrazolium bromide; stock solution: 5 mg/mL). The pale yellow MTT is reduced to a navy blue formazan in the mitochondria of living cells. At the end of incubation time, 80 µL of the lysing mixture was added to each well (lysing mixture: 225 mL dimethylformamide, 67.5 g sodium dodecyl sulfate and 275 mL of distilled water). After 24 h are formed the crystals of formazan, which are insoluble in aqueous solutions. The formazan crystals had been dissolved. The optical densities were read on a Multiskan RC photometer at 570 nm wavelength. The compounds in given concentration were examined in triplicates in each experiment which was repeated 3–5 times. The results of cytotoxic activity in vitro were expressed as an IC50 in µg/mL.

[2] = test system: T47D (human breast cancer); assay: Antiproliferative assay in vitro (SRB), T47D; type: cell-based; settings: for IC50: read-out: Cytotoxic activity IC50, T47D
Method: (§2) The tested cell lines were obtained from the American Type Culture Collection (Rockville, Maryland, USA) and maintained at the Cell Culture Collection of the Institute of Immunology and Experimental Therapy (Wrocław, Poland). The cells were seeded in 96-well plates (Sarstedt, USA) at a density of 10^4 cells per well in 100 µL of culture medium overnight. […] The normal mouse fibroblasts BALB3T3 was cultured in Dulbecco’s modified Eagle’s medium (Sigma-Aldrich, Chemie GmbH, Steinheim, Germany) supplemented with 2 mM glutamine (Sigma-Aldrich, Chemie GmbH, Steinheim, Germany) and 10 % fetal calf serum FBS (Sigma-Aldrich, Chemie GmbH, Steinheim, Germany). The all culture media were supplemented with streptomycin (100 µg/mL) and penicillin (100 U/mL) (both antibiotics from Polfa, Tarchomin, Poland). The cell cultures were maintained at 37 °C in humid atmosphere saturated with 5 % CO2. This technique as first was described by Skehan et al. in [1990]. The SRB assay was performed after 96 h exposure of the cultured cells to varying concentrations (ranging from 1 to 100 µg/mL) of the tested substances. The reported derivatives as well as betulin 1 were dissolved in 10 % dimethyl sulfoxide (DMSO) to concentration of 1 mg/mL, and next diluted in culture medium to reach the required concentrations. […] The cells fastened to the plastic were fixed mildly layering cold 50 % TCA (trichloroacetic acid, Aldrich-Chemie, Germany) on the top of the culture medium in each well. The plates were incubated at 4 °C for 1 h and then washed five times with tap water. The cells fixed with TCA were stained with 0.4 % sulforhodamine B (SRB, Sigma, Germany) dissolved in 1 % acetic acid (POCH, Gliwice, Poland) for 30 min. The unbound dye was removed by rinsing four times with 1 % acetic acid. The protein-bound dye was extracted with 10 mM unbuffered tris base (POCH, Gliwice, Poland) and then determined the optical density at 540 nm in a computer-interfaced, 96-well microtiter plate reader Multiscan RC photometer (Labsystems, Helsinki, Finland). The compounds in given concentration were examined in triplicates in each experiment which was repeated 3–5 times. The results of cytotoxic activity in vitro were expressed as an IC50 in µg/mL.

[3] = test system: CCRF/CEM (human leukemia); assay: Antiproliferative assay in vitro (MTT), CCRF/CEM; type: cell-based; settings: for IC50: read-out: Cytotoxic activity IC50, CCRF/CEM
Method: as §1

[4] = test system: SW707 (human colorectal); assay: Antiproliferative assay in vitro (SRB), SW707; type: cell-based; settings: for Cytotoxic activity IC50, SW707: human SW707, 96 h exposure, 1 to 100 µg/mL, Neg = negative in the concentration used
Method: as §2

[5] = test system: P388 (mouse leukemia); assay: Antiproliferative assay in vitro (MTT), P388; type: cell-based; settings: murine P388, 96 h exposure, 1 to 100 µg/mL, Neg = negative in the concentration used; for IC50: Mus musculus, read-out: Cytotoxic activity IC50, P388
Method: as §1

[6] = test system: BALB3T3 normal mouse fibroblasts; assay: Antiproliferative assay in vitro (SRB), BALB3T3; type: cell-based; settings: murine BALB3T3 normal fibroblasts; 96 h exposure; 1 to 100 µg/mL; Neg = negative in the concentration used
Method: as §2

[7] = Antiproliferative assay in vitro (SRB), BALB3T3; type: cell-based, mouse; settings: mouse; murine BALB3T3 normal fibroblasts; 96 h exposure; 1 to 100 µg/mL; Neg = negative in the concentration used; read-out: Cytotoxic activity IC50, BALB3T3
Method: as §2

[8] = HL-60 cancer cell line, 96 h exposure
[9] = human T47D, 96 h exposure, 1 to 100 µg/mL, Neg = negative in the concentration used
[10] = human CCRF/CEM, 96 h exposure, 1 to 100 µg/mL, Neg = negative in the concentration used

SMILES | IC50 [1, 8] | Cytotoxic activity IC50, SW707 [4] | Cytotoxic activity IC50, BALB3T3 [6] | melting point | further results
C=CCOC(=O)OC[C@]12CC[C@@H](C(=C)C)C1C1CCC3[C@@]4(C)CC[C@H](O)C(C)(C)C4CC[C@@]3(C)[C@]1(C)CC2 (some centres unmarked) [Compound 11, 28-O-Allyloxycarbonylbetulin] | 14.9 ± 3.9 mg/L (≈ 28.3 µM) | – | – | – | –
C#CCCOC(=O)OC[C@]12CC[C@@H](C(=C)C)C1C1CCC3[C@@]4(C)CCC(=O)C(C)(C)C4CC[C@@]3(C)[C@]1(C)CC2 (some centres unmarked) [Compound 25, 28-O-(3-Butynyloxycarbonyl)betulone] | – | Neg | Neg | 81 to 84 °C | IC50 [2, 9]: 29.8 ± 10.7 mg/L (≈ 55.5 µM); IC50 [3, 10]: 25.2 ± 4.6 mg/L (≈ 46.9 µM); IC50 [5]: 3.8 ± 1.9 mg/L (≈ 7.08 µM)
C=C(C)[C@@H]1CC[C@]2(COC(=O)CC)CC[C@]3(C)C(CCC4[C@@]5(C)CCC(=O)C(C)(C)C5CC[C@]43C)C12 (some centres unmarked) [Compound 15, 28-O-Propanoylbetulone] | 33.7 ± 5.5 mg/L (≈ 67.8 µM) | – | – | – | –
C#CC(=O)OC[C@]12CC[C@@H](C(=C)C)C1C1CCC3[C@@]4(C)CCC(=O)C(C)(C)C4CC[C@@]3(C)[C@]1(C)CC2 (some centres unmarked) [Compound 17, 28-O-Propynoylbetulone] | 0.3 ± 0.06 mg/L (≈ 0.609 µM) | – | – | 93 to 96 °C | fold potent than betulin 1 against HL-60 ([1]; relative to betulin 1, HL-60): 24 fold
C=C(C)[C@@H]1CC[C@]2(COC(=O)OCC#CC)CC[C@]3(C)C(CCC4[C@@]5(C)CCC(=O)C(C)(C)C5CC[C@]43C)C12 (some centres unmarked) [Compound 26, 28-O-(2-Butynyloxycarbonyl)betulone] | – | Neg | Neg | 150 to 152 °C | IC50 [2, 9]: 79.2 ± 5.2 mg/L (≈ 148 µM); IC50 [3, 10]: 47.6 ± 5.7 mg/L (≈ 88.7 µM); IC50 [5]: 18.3 ± 12.9 mg/L (≈ 34.1 µM)
C#CCOC(=O)OC[C@]12CC[C@@H](C(=C)C)C1C1CCC3[C@@]4(C)CC[C@H](O)C(C)(C)C4CC[C@@]3(C)[C@]1(C)CC2 (some centres unmarked) [Compound 12] | 3.7 ± 0.5 mg/L (≈ 7.05 µM) | – | – | – | –
C=C(C)[C@@H]1CC[C@]2(COC(=O)C#Cc3ccccc3)CC[C@]3(C)C(CCC4[C@@]5(C)CCC(=O)C(C)(C)C5CC[C@]43C)C12 (some centres unmarked) [Compound 19, 28-O-Phenylpropynoylbetulone] | – | Neg | Neg | 82 to 85 °C | Cytotoxic activity IC50, T47D [2, 9]: Neg; Cytotoxic activity IC50, CCRF/CEM [3, 10]: Neg; Cytotoxic activity IC50, P388 [5]: Neg
C=C(C)[C@@H]1CC[C@]2(COC(=O)C#CC3CC3)CC[C@]3(C)C(CCC4[C@@]5(C)CCC(=O)C(C)(C)C5CC[C@]43C)C12 (some centres unmarked) [Compound 18, 28-O-(3-Cyclopropyl-2-propynoyl)betulone] | 33.9 ± 5.5 mg/L (≈ 63.6 µM) | – | – | 93 to 97 °C | –
C=C(C)[C@@H]1CC[C@]2(COC(=O)OCCC)CC[C@]3(C)C(CCC4[C@@]5(C)CC[C@H](O)C(C)(C)C5CC[C@]43C)C12 (some centres unmarked) [Compound 10, 28-O-Propoxycarbonylbetulin] | 26.8 ± 2.5 mg/L (≈ 50.7 µM) | – | – | – | –
C=C(C)[C@@H]1CC[C@]2(COC(=O)C#CC3CC3)CC[C@]3(C)C(CCC4[C@@]5(C)CC[C@H](O)C(C)(C)C5CC[C@]43C)C12 (some centres unmarked) [Compound 6, 28-O-(3-Cyclopropyl-2-propynoyl)betulin] | 44.8 ± 10.9 mg/L (≈ 83.8 µM) | Neg | Neg | 108 to 113 °C | IC50 [2, 9]: 33.6 ± 6.3 mg/L (≈ 62.8 µM); IC50 [3, 10]: 16.5 ± 8.5 mg/L (≈ 30.9 µM); IC50 [5]: 8.4 ± 9.2 mg/L (≈ 15.7 µM)
C=C(C)[C@@H]1CC[C@]2(COC(=O)OCCC)CC[C@]3(C)C(CCC4[C@@]5(C)CCC(=O)C(C)(C)C5CC[C@]43C)C12 (some centres unmarked) [Compound 22, 28-O-Propoxycarbonylbetulone] | 21.4 ± 2.1 mg/L (≈ 40.6 µM) | – | – | 76 to 78 °C | –
C=C(C)[C@@H]1CC[C@]2(COC(=O)C#CC)CC[C@]3(C)C(CCC4[C@@]5(C)CCC(=O)C(C)(C)C5CC[C@]43C)C12 (some centres unmarked) [Compound 21, 28-O-(2-Butynoyl)betulone] | 29.5 ± 5.4 mg/L (≈ 58.2 µM) | – | – | 92 to 94 °C | –
C=C(C)[C@@H]1CC[C@]2(CO)CC[C@]3(C)[C@H](CC[C@@H]4[C@@]5(C)CC[C@H](O)C(C)(C)[C@@H]5CC[C@]43C)[C@@H]12 [Betulin 1, lup-20(29)-ene-3β,28-diol, reference compound] | – | – | – | – | IC50 ([2]; Homo sapiens, T47D, 96 h): 32.4 ± 10.7 mg/L (≈ 73.2 µM); IC50 ([3]; Homo sapiens, CCRF-CEM, 96 h): 10.9 ± 5.5 mg/L (≈ 24.6 µM); IC50 ([4]; Homo sapiens, SW707, 96 h, read-out: Cytotoxic activity IC50, SW707): 22.9 ± 15.4 mg/L (≈ 51.7 µM); IC50 at 96 h [7]: 47.3 ± 7.9 mg/L (≈ 107 µM); IC50 ([1]; HL-60, 96 h): 7.2 ± 0.5 mg/L (≈ 16.3 µM)
C#CCOC(=O)OC[C@]12CC[C@@H](C(=C)C)C1C1CCC3[C@@]4(C)CCC(=O)C(C)(C)C4CC[C@@]3(C)[C@]1(C)CC2 (some centres unmarked) [Compound 24, 28-O-Propargyloxycarbonylbetulone] | 11.6 ± 4.9 mg/L (≈ 22.2 µM) | Neg | Neg | 173 to 175 °C | IC50 [2, 9]: 23.3 ± 3.5 mg/L (≈ 44.6 µM); IC50 [3, 10]: 18.7 ± 6.6 mg/L (≈ 35.8 µM); IC50 [5]: 30.3 ± 11.8 mg/L (≈ 58 µM)
C=CC(=O)OC[C@]12CC[C@@H](C(=C)C)C1C1CCC3[C@@]4(C)CCC(=O)C(C)(C)C4CC[C@@]3(C)[C@]1(C)CC2 (some centres unmarked) [Compound 16, 28-O-(2-Propenoyl)betulone] | 5 ± 1.3 mg/L (≈ 10.1 µM) | – | – | – | –
C=CCOC(=O)OC[C@]12CC[C@@H](C(=C)C)C1C1CCC3[C@@]4(C)CCC(=O)C(C)(C)C4CC[C@@]3(C)[C@]1(C)CC2 (some centres unmarked) [Compound 23, 28-O-Allyloxycarbonylbetulone] | 28.4 ± 1.6 mg/L (≈ 54.1 µM) | – | – | 123 to 125 °C | –
